Measurements: patent publication US9034387B2, “Intrinsically fluorescent carbon nanospheres and a process thereof” (priority 2007, dated 2015)

Test system: acetylated histone H3 in HeLa cells
Experiment: Immunofluorescence analysis using acetylated H3 antibody
Type: cell-based
Settings: CTPB alone at 300 μM, compared with untreated cells
Description: FIG. 3. Small molecule HAT activator binds to the CSP and induces hyperacetylation within HeLa cells. (a) X-ray crystal structure of CTPB showing the ball and stick model view of the compound. The color coding of the atoms is as follows: light blue, carbon; white, hydrogen; red, oxygen; grey, fluorine; green, chlorine; dark blue, nitrogen. (b) SEM image of the carbon spheres, adsorbed with CTPB (Panel I). A specific area of the sample was excited with the electron beam of energy suitable for the constituent elements to emit the X-rays of their characteristic wavelength. […] (c)-(d) Top panel represents the confocal image of HeLa cells, Bottom panel represents intensity profile of the image arising from Hoechst stained nuclei shown as blue peak, Fluorescence intensity of CSP is shown as light green peak, Fluorescence intensity from Alexa 488 fluor antibody is shown as dark green peak. HeLa cells, (3c, I) untreated, stained with Hoechst dye; (3c, II) treated with CSP, where carbon sphere fluorescence always overlap with the nuclear region, showing that the nanosphere localized within the nucleus specifically; (3c, III) untreated, probed with antibody against acetylated histone H3; (3c, IV) treated with HAT activator CTPB (300 μM), probed with antibody against acetylated histone H3. […]

SMILES: CCOc1ccccc1C(=O)Nc1ccc(Cl)c(C(F)(F)F)c1 [CTPB, 4-chloro-3-trifluoromethylphenyl-2-ethoxybenzamide]
- acetylation level (acetylated H3 immunofluorescence), result in words: did not show any difference
